Each compound was assayed against SHP2 (Homo sapiens (Human), UniProt Q06124) (assay: SHP2 Allosteric Inhibition Assay). Details: 0.5 nM SHP2 with 0.5 μM peptide IRS1_pY1172(dPEG8)pY1222; surrogate substrate DiFMUP; 25° C.; read-out: SHP2 IC50.
Format: biochemical
How it was run: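 Phosphatase activity of bis-tyrosyl-phosphopeptide-activated SHP2 was read by prompt fluorescence from DiFMUP turnover. After 30–60 min preincubation at 25 °C, DiFMUP was added for 30 min at 25 °C. IC50s came from control-normalized dose-response fitting.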

| SMILES | IC50 |
| --- | --- |
| CNc1nccc(-c2n[nH]c3nc(N4CCC5(CC4)C[C@@H](C)C[C@H]5N)n(C)c(=O)c23)c1Cl [Example 77, 6-((1R,3R)-1-amino-3-methyl-8-azaspiro[4.5]decan-8-yl)-3-(3-chloro-2-(methylamino)pyridin-4-yl)-5-methyl-1,5-dihydro-4H-pyrazolo[3,4-d]pyrimidin-4-one] | 0.03 µM |
| Cc1c(-c2n[nH]c3nc(N4CCC5(CC4)CO[C@@H](C)[C@H]5N)n(C)c(=O)c23)ccnc1Cl [Example 78, 6-((3S,4S)-4-amino-3-methyl-2-oxa-8-azaspiro[4.5]decan-8-yl)-3-(2-chloro-3-methylpyridin-4-yl)-5-methyl-1,5-dihydro-4H-pyrazolo[3,4-d]pyrimidin-4-one] | 0.017 µM |
| C[C@@H]1OCC2(CCN(c3nc4[nH]nc(-c5cc(N)ncc5Cl)c4c(=O)n3C)CC2)[C@@H]1N [Example 80, 6-((3S,4S)-4-amino-3-methyl-2-oxa-8-azaspiro[4.5]decan-8-yl)-3-(2-amino-5-chloropyridin-4-yl)-5-methyl-1,5-dihydro-4H-pyrazolo[3,4-d]pyrimidin-4-one] | 0.129 µM |
| Cn1c(N2CCC(C)(CN)CC2)nc2[nH]nc(Sc3cccc(Cl)c3Cl)c2c1=O [Example 83, 6-(4-(aminomethyl)-4-methylpiperidin-1-yl)-3-((2,3-dichlorophenyl)thio)-5-methyl-1,5-dihydro-4H-pyrazolo[3,4-d]pyrimidin-4-one] | 0.008 µM |
| C[C@@H]1OCC2(CCN(c3nc4[nH]nc(Sc5ccnc(N)c5Cl)c4c(=O)n3C)CC2)[C@@H]1N [Example 84, 3-((2-amino-3-chloropyridin-4-yl)thio)-6-((3S,4S)-4-amino-3-methyl-2-oxa-8-azaspiro[4.5]decan-8-yl)-5-methyl-1,5-dihydro-4H-pyrazolo[3,4-d]pyrimidin-4-one] | 0.027 µM |

The remaining lines, values ahead:

| IC50 | SMILES |
| --- | --- |
| 0.039 µM | C[C@@H]1OCC2(CCN(c3nc4[nH]nc(-c5ccnc(NCC6CC6)c5Cl)c4c(=O)n3C)CC2)[C@@H]1N [Example 74, 6-((3S,4S)-4-amino-3-methyl-2-oxa-8-azaspiro[4.5]decan-8-yl)-3-(3-chloro-2-((cyclopropylmethyl)amino)pyridin-4-yl)-5-methyl-1,5-dihydro-4H-pyrazolo[3,4-d]pyrimidin-4-one] |
| 0.032 µM | C[C@H]1C[C@@H](N)C2(CCN(c3nc4[nH]nc(-c5ccnc(N)c5Cl)c4c(=O)n3C)CC2)C1 [Example 76, 3-(2-amino-3-chloropyridin-4-yl)-6-((1R,3R)-1-amino-3-methyl-8-azaspiro[4.5]decan-8-yl)-5-methyl-1,5-dihydro-4H-pyrazolo[3,4-d]pyrimidin-4-one] |
| 0.03 µM | C[C@@H]1OCC2(CCN(c3nc4[nH]nc(-c5cc(Cl)ncc5Cl)c4c(=O)n3C)CC2)[C@@H]1N [Example 79, 6-((3S,4S)-4-amino-3-methyl-2-oxa-8-azaspiro[4.5]decan-8-yl)-3-(2,5-dichloropyridin-4-yl)-5-methyl-1,5-dihydro-4H-pyrazolo[3,4-d]pyrimidin-4-one] |
| 0.067 µM | C[C@@H]1OCC2(CCN(c3cnc4c(-c5ccnc(Cl)c5Cl)n[nH]c4n3)CC2)[C@@H]1N [Example 85, (3S,4S)-8-(3-(2,3-dichloropyridin-4-yl)-1H-pyrazolo[3,4-b]pyrazin-6-yl)-3-methyl-2-oxa-8-azaspiro[4.5]decan-4-amine] |
